Measured values as given in US20080063628A1, “METHODS TO PROMOTE CELL DIFFERENTIATION” (priority 2006, published 2008).

Experiments:
Experiment in all cases: Two sequential high dose trichostatin A treatments (24 h each), gene expression by RT-PCR (Example 8)
Format in all cases: cell-based, human
[1] = tested on: amniotic fluid-derived cell line; conditions: for Gata1 gene expression / HNF-3 beta gene expression / Insulin gene expression / Pdx-1 gene expression / sox17 gene expression: 1.25 μM 0-24 h + 96-120 h
Experimental: (§1) Several cell lines obtained from different amniotic fluid specimens (see Example 14) and pancreas donors (see Example 13) were tested with similar results. Two lines at similar passage number but derived from different amniotic fluid specimens are shown in Table VIII-A and Table VIII-B for this example. One of these cell lines was also used in examples 2 and 4 above. In addition, this example also contains comparison data in Table VIII-C and Table VIII-D for a single pancreatic-derived stromal line grown to early and late passage number.
(§2) Amniotic fluid derived cells or pancreatic-derived stromal cells were seeded into 24-well tissue culture plates at a density of 5000/cm^2 and cultured in AMNIOMAX (Invitrogen) or DMEM with 10% FBS respectively under standard cell culture conditions until confluent. After the cells reached confluency, amniotic fluid derived cells were treated at time 0 hours with a dose of 1.25 μM trichostatin A, and pancreatic-derived stromal cells were treated with a dose of 5.0 μM trichostatin A solubilized in DMSO and medium. At time 24 hours, cell cultures underwent a complete medium change to remove all traces of trichostatin A. At time 96 hours, cell cultures were re-fed with fresh medium and received a second dose of trichostatin A at the same concentration as used previously. At time 120 hours, cell cultures again underwent a complete medium change and were cultured for an additional 24 hours or […] total incubation time.
(§3) Samples were taken daily for RT-PCR at the times indicated in Table VIII-A to D. The culture media was removed, and samples were rinsed in PBS then collected in RLT with β-mercaptoethanol (Qiagen). RNA was purified using the RNeasy Mini Kit (Qiagen) and RNA quantity and quality were determined using a spectrophotometer. cDNA was made using the iScript cDNA synthesis kit (BioRad).
(§4) Samples of 20 ng cDNA were used in each reaction to determine the expression levels of the following genes in amniotic fluid-derived cells: Gata1, HNF-3 beta, Pdx-1, insulin, and Sox17. Similarly, samples of 20 ng cDNA were used in each reaction to determine the expression level of the following genes in pancreatic-derived cells: glucagon, HNF-3 beta, insulin and Pdx-1. Real-Time PCR was performed on the Applied Biosystems 7500, and data was analyzed using the accompanying software according to the methods described in Example 15.
(§5) Real-time PCR amplifcation and quantitative analysis. Unless otherwise stated, all reagents were purchased from Applied Biosystems. Real-time PCR reactions were performed using the ABI PRISM™ 7500 Sequence Detection System. TAQMAN™ FAST UNIVERSAL PCR MASTER MIX™ (ABI, CA) was used with 20 ng of reverse transcribed RNA in a total reaction volume of 20 μl. Each cDNA sample was run in duplicate to allow correction of pipetting errors. Primers and FAM-labeled TAQMAN™ probes were used at concentrations of 200 nM. The level of expression for each target gene was normalized using the pre-developed Applied Biosystem's human glyceraldehyde-3-phosphate dehydrogenase (GAPDH) endogenous control kit. Primers and probes were designed using either ABI PRISM PRIMER EXPRESS™ software or a pre-developed ABI gene analysis kit. For each gene, either one of the primers or the probe were designed to be exon-boundary spanning. This eliminated the possibility of the primers/probe binding to any genomic DNA present. The primer and probe sets are listed as follows: Pdx-1 (Hs00426216), Insulin (Hs00355773), glucagon (Hs00174967), and FoxA2 (HNF 3-beta) (Hs00232764). The remaining primers were designed using the PRIMERS program (ABI, CA). After an initial 95° C. incubation for 20 sec, samples were cycled 40 times in two stages: a denaturation step at 95° C. for 3 sec, followed by an annealing/extension step at 60° C. for 30 sec. […]

[2] = tested on: early passage (P5) pancreatic-derived stromal cell line; conditions: for HNF-3 beta gene expression / Insulin gene expression / Pdx-1 gene expression / glucagon gene expression: 5 μM 0-24 h + 96-120 h
Experimental: as §1, §2, §3, §4, §5

[3] = tested on: late passage (P11) pancreatic-derived stromal cell line; conditions: for HNF-3 beta RT-PCR detection cycle / Pdx-1 RT-PCR detection cycle / glucagon RT-PCR detection cycle: 5.0 μM
Experimental: as §1, §2, §3, §4, §5

[4] = 5.0 μM, following first treatment
[5] = 5 μM 0-24 h + 96-120 h, 120 hrs

CC(/C=C/C(=O)NO)=C\[C@@H](C)C(=O)c1ccc(N(C)C)cc1 [trichostatin A]
Gata1 gene expression ([1]; 24 hrs): + (detectable between 35 and 40 cycles by RT-PCR)
HNF-3 beta gene expression ([1]; 24 hrs): +++ (detectable at less than 35 cycles by RT-PCR with SE less than 0.9)
Insulin gene expression ([1]; 24 hrs): nd (not detectable at >40 cycles by RT-PCR)
Pdx-1 gene expression ([1]; 24 hrs): +++ (detectable at less than 35 cycles by RT-PCR with SE less than 0.9)
sox17 gene expression ([1]; 24 hrs): +++ (detectable at less than 35 cycles by RT-PCR with SE less than 0.9)
Gata1 gene expression ([1]; 48 hrs): nd (not detectable at >40 cycles by RT-PCR)
HNF-3 beta gene expression ([1]; 48 hrs): +++ (detectable at less than 35 cycles by RT-PCR with SE less than 0.9)
Insulin gene expression ([1]; 48 hrs): nd (not detectable at >40 cycles by RT-PCR)
Pdx-1 gene expression ([1]; 48 hrs): nd (not detectable at >40 cycles by RT-PCR)
sox17 gene expression ([1]; 48 hrs): +++ (detectable at less than 35 cycles by RT-PCR with SE less than 0.9)
Gata1 gene expression ([1]; 72 hrs): nd (not detectable at >40 cycles by RT-PCR)
HNF-3 beta gene expression ([1]; 72 hrs): + (detectable between 35 and 40 cycles by RT-PCR)
Insulin gene expression ([1]; 72 hrs): + (detectable between 35 and 40 cycles by RT-PCR)
Pdx-1 gene expression ([1]; 72 hrs): nd (not detectable at >40 cycles by RT-PCR)
sox17 gene expression ([1]; 72 hrs): +++ (detectable at less than 35 cycles by RT-PCR with SE less than 0.9)
Gata1 gene expression ([1]; 96 hrs): nd (not detectable at >40 cycles by RT-PCR)
HNF-3 beta gene expression ([1]; 96 hrs): + (detectable between 35 and 40 cycles by RT-PCR)
Insulin gene expression ([1]; 96 hrs): + (detectable between 35 and 40 cycles by RT-PCR)
Pdx-1 gene expression ([1]; 96 hrs): nd (not detectable at >40 cycles by RT-PCR)
sox17 gene expression ([1]; 96 hrs): +++ (detectable at less than 35 cycles by RT-PCR with SE less than 0.9)
Gata1 gene expression ([1]; 120 hrs): nd (not detectable at >40 cycles by RT-PCR)
HNF-3 beta gene expression ([1]; 120 hrs): +++ (detectable at less than 35 cycles by RT-PCR with SE less than 0.9)
Insulin gene expression ([1]; 120 hrs): nd (not detectable at >40 cycles by RT-PCR)
Pdx-1 gene expression ([1]; 120 hrs): +++ (detectable at less than 35 cycles by RT-PCR with SE less than 0.9)
sox17 gene expression ([1]; 120 hrs): +++ (detectable at less than 35 cycles by RT-PCR with SE less than 0.9)
Gata1 gene expression ([1]; 144 hrs): nd (not detectable at >40 cycles by RT-PCR)
HNF-3 beta gene expression ([1]; 144 hrs): +++ (detectable at less than 35 cycles by RT-PCR with SE less than 0.9)
Insulin gene expression ([1]; 144 hrs): nd (not detectable at >40 cycles by RT-PCR)
Pdx-1 gene expression ([1]; 144 hrs): nd (not detectable at >40 cycles by RT-PCR)
sox17 gene expression ([1]; 144 hrs): +++ (detectable at less than 35 cycles by RT-PCR with SE less than 0.9)
Gata-1 RT-PCR detection cycle ([1]; 1.25 μM, following the first addition): 37 cycles
Insulin RT-PCR detection cycle ([1]; 1.25 μM, following the media change): 36 cycles
HNF-3 beta RT-PCR detection cycle ([1]; 1.25 μM, initial treatment): 32 cycles
Pdx-1 RT-PCR detection cycle ([1]; 1.25 μM, initial treatment (37 before treatment)): 32 cycles
HNF-3 beta RT-PCR detection cycle ([1]; 1.25 μM, second treatment): 32 cycles
Pdx-1 RT-PCR detection cycle ([1]; 1.25 μM, second treatment): 34 cycles
HNF-3 beta gene expression ([2]; 24 hrs): +++ (detectable at less than 35 cycles by RT-PCR with SE less than 0.9)
Insulin gene expression ([2]; 24 hrs): nd (not detectable at >40 cycles by RT-PCR)
Pdx-1 gene expression ([2]; 24 hrs): ++ (detectable at less than 35 cycles by RT-PCR with SE greater than 0.9)
glucagon gene expression ([2]; 24 hrs): +++ (detectable at less than 35 cycles by RT-PCR with SE less than 0.9)
HNF-3 beta gene expression ([2]; 48 hrs): nd (not detectable at >40 cycles by RT-PCR)
Insulin gene expression ([2]; 48 hrs): nd (not detectable at >40 cycles by RT-PCR)
Pdx-1 gene expression ([2]; 48 hrs): nd (not detectable at >40 cycles by RT-PCR)
glucagon gene expression ([2]; 48 hrs): + (detectable between 35 and 40 cycles by RT-PCR)
HNF-3 beta gene expression ([2]; 72 hrs): nd (not detectable at >40 cycles by RT-PCR)
Insulin gene expression ([2]; 72 hrs): nd (not detectable at >40 cycles by RT-PCR)
Pdx-1 gene expression ([2]; 72 hrs): nd (not detectable at >40 cycles by RT-PCR)
glucagon gene expression ([2]; 72 hrs): + (detectable between 35 and 40 cycles by RT-PCR)
HNF-3 beta gene expression ([2]; 96 hrs): nd (not detectable at >40 cycles by RT-PCR)
Insulin gene expression ([2]; 96 hrs): nd (not detectable at >40 cycles by RT-PCR)
Pdx-1 gene expression ([2]; 96 hrs): nd (not detectable at >40 cycles by RT-PCR)
glucagon gene expression ([2]; 96 hrs): nd (not detectable at >40 cycles by RT-PCR)
HNF-3 beta gene expression ([2]; 120 hrs): + (detectable between 35 and 40 cycles by RT-PCR)
Insulin gene expression ([2]; 120 hrs): nd (not detectable at >40 cycles by RT-PCR)
Pdx-1 gene expression ([2]; 120 hrs): +++ (detectable at less than 35 cycles by RT-PCR with SE less than 0.9)
glucagon gene expression ([2]; 120 hrs): nd (not detectable at >40 cycles by RT-PCR)
HNF-3 beta gene expression ([2]; 144 hrs): nd (not detectable at >40 cycles by RT-PCR)
Insulin gene expression ([2]; 144 hrs): nd (not detectable at >40 cycles by RT-PCR)
Pdx-1 gene expression ([2]; 144 hrs): nd (not detectable at >40 cycles by RT-PCR)
glucagon gene expression ([2]; 144 hrs): + (detectable between 35 and 40 cycles by RT-PCR)
Pdx-1 RT-PCR detection cycle ([2]; 5.0 μM, after the second treatment): 32 cycles
glucagon RT-PCR detection cycle ([2]; 5.0 μM, end of the experiment): 38 cycles
HNF-3 beta RT-PCR detection cycle ([2]; 5.0 μM, following a second treatment): 36 cycles
HNF-3 beta RT-PCR detection cycle [2, 4]: 34 cycles
glucagon RT-PCR detection cycle [2, 4]: 35 cycles
Pdx-1 gene expression ([3]; 5 μM 0-24 h + 96-120 h, 24 hrs): + (detectable at less than 35 cycles with SE greater than 0.9)
Insulin gene expression ([3]; 5 μM 0-24 h + 96-120 h, 48 hrs): + (detectable at less than 35 cycles with SE greater than 0.9)
glucagon gene expression ([3]; 5 μM 0-24 h + 96-120 h, 48 hrs): + (detectable at less than 35 cycles with SE greater than 0.9)
glucagon gene expression ([3]; 5 μM 0-24 h + 96-120 h, 72 hrs): + (detectable at less than 35 cycles with SE greater than 0.9)
glucagon gene expression ([3]; 5 μM 0-24 h + 96-120 h, 96 hrs): + (detectable at less than 35 cycles with SE greater than 0.9)
HNF-3 beta gene expression [3, 5]: + (detectable at less than 35 cycles with SE greater than 0.9)
glucagon gene expression [3, 5]: + (detectable at less than 35 cycles with SE greater than 0.9)
glucagon gene expression ([3]; 5 μM 0-24 h + 96-120 h, 144 hrs): + (detectable at less than 35 cycles with SE greater than 0.9)
HNF-3 beta RT-PCR detection cycle ([3]; after the second treatment): 36 cycles
HNF-3 beta RT-PCR detection cycle ([3]; following first treatment): 32 cycles
Pdx-1 RT-PCR detection cycle ([3]; following first treatment): 31 cycles
glucagon RT-PCR detection cycle ([3]; following first treatment): 33 cycles
glucagon RT-PCR detection cycle ([3]; following the medium change): 38 cycles
Pdx-1 RT-PCR detection cycle ([3]; following the second addition): 34 cycles
